Article PMC9032776, “Towards Selective Binding to the GLUT5 Transporter: Synthesis, Molecular Dynamics and In Vitro Evaluation of Novel C-3-Modified 2,5-Anhydro-D-mannitol Analogs” (Pharmaceutics, 2022)
Like-named read-outs stand apart in the source and are kept apart here. Blank lines part the entries; values can stand above or below the compound they belong to.

Columns and labels:
GLUT5 [1] = molecular target: T1, GLUT5 (Mus musculus, UniProt Q9WV38); details: cited from earlier work
T1 construct: GLUT5-expressing murine mammary carcinoma cancer cells (EMT6); endogenous in cells; host or cells: EMT6 murine mammary carcinoma cells
T1 sequence (Q9WV38 1-501): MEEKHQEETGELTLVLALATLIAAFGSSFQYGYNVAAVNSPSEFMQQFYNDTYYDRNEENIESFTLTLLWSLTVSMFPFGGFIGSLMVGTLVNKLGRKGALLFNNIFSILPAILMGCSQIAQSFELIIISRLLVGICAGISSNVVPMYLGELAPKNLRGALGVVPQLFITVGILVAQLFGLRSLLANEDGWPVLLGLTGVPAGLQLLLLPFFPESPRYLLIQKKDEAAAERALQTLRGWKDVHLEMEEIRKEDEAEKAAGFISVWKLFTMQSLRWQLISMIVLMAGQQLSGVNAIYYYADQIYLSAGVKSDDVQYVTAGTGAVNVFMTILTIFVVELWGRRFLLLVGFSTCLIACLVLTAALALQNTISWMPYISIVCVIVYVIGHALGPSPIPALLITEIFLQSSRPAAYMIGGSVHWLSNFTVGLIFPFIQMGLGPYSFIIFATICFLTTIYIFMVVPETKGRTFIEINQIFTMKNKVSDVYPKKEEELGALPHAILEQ

GLUT5 [2] = molecular target: T1, GLUT5; test: In vitro inhibition of 6-[18F]FDF cell uptake (competition) in EMT6 cells; format: cell-based, murine; details: for IC50: 60 min incubation, glucose-free Krebs-Ringer buffer, mean ± SEM from n data points out of 2-4 experiments, read-out: IC50 (mM) against 6-[18F]FDF uptake into EMT6 cells; for Inhibition of 6-[18F]FDF uptake into EMT6 cells (in words): selected concentration range 10^-8-10^-3 and 3 x 10^-2 M; for Fold better inhibition of 6-[18F]FDF uptake relative to 6-FDF: compared with reference 6-FDF
Protocol: EMT6 cells were grown to confluence in 12-well cell culture plates with media renewal every 2 days. One hour prior to the experiment, cell culture media was removed and the plates were washed twice with glucose-free Krebs–Ringer buffer solution. To each well, 1 mL of glucose-free Krebs–Ringer buffer solution was added and incubation at 37 °C was continued for 1 h under the glucose-free condition. After one hour, Krebs–Ringer buffer was removed.
After 60 min incubation time, radiotracer uptake was stopped with 1 mL of ice-cold PBS, and the cells were washed twice with PBS and lysed in 0.4 mL radioimmunoprecipitation assay buffer (RIPA buffer). Radioactivity in the cell lysates was then determined as counts per minute (CPM) using a WIZARD2 automatic γ-counter (Perkin Elmer, Waltham, MA, USA) and converted to the radioactivity dose SI unit Becquerel (Bq). Data was analyzed as percentage of maximum uptake of 6-[^18F]FDF. Graphs were constructed using GraphPad Prism 5.0 (GraphPad Software, San Diego, CA, USA) and half-maximum inhibition concentrations (IC50) were determined by graphical analysis of the concentration-inhibition curves.
To analyze the interaction of these novel C-3-modified 2,5-anhydro-D-mannitol analogs with GLUT5, in vitro experiments were carried out in GLUT5-expressing murine mammary carcinoma cancer cells (EMT6) to determine how the varied substitution patterns would impact GLUT5 binding. Furthermore, fructose derivative 6-FDF was used as the reference compound as it was analyzed for its uptake profile through GLUT5 in the past. […] Therefore, when designing novel specific inhibitors for the GLUT5 transporter, it would be reasonable to expect their GLUT5 transport also in a millimolar concentration range, especially when using a radiometric assay that was established with radiolabeled fructose derivative 6-[^18F]FDF in murine EMT6 breast cancer cells and with inhibition by D-fructose and reference compound 6-FDF as internal controls.

GLUT2 = test system: GLUT2; design: method as in PMID 29142019; details: murine EMT6 cells; read-out: IC50 against uptake of [18F]FDG; cited from earlier work
[3] = Solubility in Krebs-Ringer buffer; format: physicochemical
GLUT5 [4] = details: read-out: Affinity (Km) of fructose transport through GLUT5; D-[14C]fructose; GLUT5 (human isoform)-expressing oocytes or brush-border membrane vesicles from rat and human intestine; cited from earlier work
GLUT5 [5] = test system: GLUT5; design: method as in PMID 27074918; details: proteoliposome GLUT5 expression system; read-out: IC50 against D-[14C]fructose; cited from earlier work
GLUT5 [6] = test system: GLUT5; design: method as in PMID 27074918; details: MCF7 human breast cancer cells; read-out: IC50 against D-[14C]fructose; cited from earlier work
GLUT5 [7] = details: human MCF7 breast cancer cells; cited from earlier work
GLUT1 = test system: GLUT1; design: method as in PMID 18398011, PMID 9299540, PMID 15457374, doi:10.1002/bmb.2003.494031030227; details: cited from earlier work
GLUT5 [8] = test system: GLUT5; design: method as in PMID 26306809; details: read-out: IC50 against D-[14C]fructose; cited from earlier work

Compound: OC[C@H]1O[C@H](CF)[C@@H](O)[C@@H]1O [1-FDAM, 1-deoxy-1-fluoro-2,5-anhydro-mannitol]
IC50 (GLUT5 [1]; estimated earlier by the authors, read-out: IC50 against the uptake of the probe 6-[18F]FDF): ~20 mM

IC50 (GLUT5 [2]): 17 ± 0.75 mM
Compound: O=C(CO)[C@@H](O)[C@H](O)[C@H](O)CF [6-FDF, 6-deoxy-6-fluoro-D-fructose]
IC50 (GLUT5 [1]; murine EMT6 breast cancer cells, read-out: IC50 (half-maximum inhibition concentration) against 6-[18F]FDF uptake): 19 mM

IC50 (GLUT5 [2]): ~6 mM
Compound: O=S(=O)(N[C@H]1[C@H](O)[C@@H](CO)O[C@@H]1CO)c1ccc(F)cc1 [Compound 4, 3-deoxy-3-[N-(4-fluorobenzenesulfonamide)amino]-2,5-anhydro-D-mannitol]

Compound: O=S(=O)(N[C@H]1[C@H](O)[C@@H](CO)O[C@@H]1CO)c1ccc(F)cc1C(F)(F)F [Compound 5, 3-deoxy-3-[N-(4-fluoro-2-(trifluoromethyl)benzenesulfonamide)amino]-2,5-anhydro-D-mannitol]
Inhibition of 6-[18F]FDF uptake into EMT6 cells (in words) (GLUT5 [2]): failed to inhibit 6-[^18F] FDF uptake transport at all

IC50 (GLUT5 [2]): 2.29 ± 0.18 mM
Fold better inhibition of 6-[18F]FDF uptake relative to 6-FDF (GLUT5 [2]): fivefold stronger inhibitory effect
Compound: CN(C)c1cccc2c(S(=O)(=O)N[C@H]3[C@H](O)[C@@H](CO)O[C@@H]3CO)cccc12 [Compound 6, 3-deoxy-3-[N-(5-(dimethylamino)naphthalene-1-sulfonamide)amino]-2,5-anhydro-D-mannitol]

Inhibition of 6-[18F]FDF uptake into EMT6 cells (in words) (GLUT5 [2]): no effect on 6-[^18F]FDF uptake
Compound: OC[C@H]1O[C@H](CO)[C@@H](NC(=S)Nc2ccc(F)cc2)[C@@H]1O [Compound 7, 3-deoxy-3-[N-(1-(4-fluorophenyl)thiourea)amino]-2,5-anhydro-D-mannitol]

IC50 (GLUT5 [2]): ~20 mM
Compound: O=C(O)c1cc(NC(=S)N[C@H]2[C@H](O)[C@@H](CO)O[C@@H]2CO)ccc1-c1c2ccc(=O)cc-2oc2cc(O)ccc12 [Compound 8]

Compound: O=C(N[C@H]1[C@H](O)[C@@H](CO)O[C@@H]1CO)c1ccc(F)cc1 [Compound 9, 3-deoxy-3-[N-(4-fluorobenzamide)amino]-2,5-anhydro-D-mannitol]
Inhibition of 6-[18F]FDF uptake into EMT6 cells (in words) (GLUT5 [2]): no inhibitory activity in the selected concentration range

Fold better inhibition of 6-[18F]FDF uptake relative to 6-FDF (GLUT5 [2]): ~ 10 fold
Compound: O=C(CO/N=C/c1ccc(F)cc1)N[C@H]1[C@H](O)[C@@H](CO)O[C@@H]1CO [Compound 10, 3-deoxy-3-[N-(2-(((4-fluorobenzylidene)amino)oxy)acetamide)amino]-2,5-anhydro-D-mannitol]

IC50 (GLUT5 [2]): 1.71 ± 0.08 mM
Fold better inhibition of 6-[18F]FDF uptake relative to 6-FDF (GLUT5 [2]): ~ 10 fold
Compound: O=C(N[C@H]1[C@H](O)[C@@H](CO)O[C@@H]1CO)c1cc2ccc(OCCF)cc2oc1=O [Compound 11, 3-deoxy-3-[N-(7-(2-fluoroethoxy)-2-oxo-2H-chromene-3-carboxamide)amino]-2,5-anhydro-D-mannitol]

Compound: O=C(CO)[C@@H](O)[C@H](O)[C@H](O)CO [Fructose, D-fructose]
IC50 (GLUT2): 80 mM
Solubility [3]: freely soluble
Km (GLUT5 [4]): 11 to 15 mM

Compound: CS(=O)(=O)c1ccc(Nc2ccc3c(c2)OCO3)c([N+](=O)[O-])c1 [MSNBA, N-(4-methanesulfonyl-2-nitrophenyl)-2H-1,3-benzodioxol-5-amine]
IC50 (GLUT5 [5]): 0.1 mM
IC50 (GLUT5 [6]): 5.8 mM

Compound: O=[N+]([O-])c1ccc(NC[C@H]2O[C@H](CO)[C@@H](O)[C@@H]2O)c2nonc12 [NBDM, 1-[N-(7-nitrobenz-2-oxa-1,3-diazole-4-yl)amino]-2,5-anhydro-D-mannitol]
Ki (GLUT5 [7]): 2.3 to 2.7 mM
Transport efficiency through GLUT5 relative to D-fructose (GLUT5 [7]): transported twice as efficiently as D-fructose

Compound: OC[C@H]1OC(O)[C@H](O)[C@@H](O)[C@@H]1O (stereo partly shown) [glucose]
Affinity of glucose transport through GLUT1 (K4) (GLUT1): 1 to 2 mM

Compound: C=C1C[C@@]23CC[C@H]4[C@@](C)(CCC[C@@]4(C)C(=O)O[C@@H]4O[C@H](CO)[C@@H](O)[C@H](O)[C@H]4O)[C@@H]2CC[C@]1(O[C@@H]1O[C@H](CO)[C@@H](O)[C@H](O)[C@H]1O)C3 [rubusoside]
IC50 (GLUT5 [8]): 10.3 mM
